Measured values as given in patent publication US20240116985A1, “STAPLED PEPTIDES AND METHODS THEREOF” (priority 2020, published 2024).
Like-named read-outs stand apart in the source and are kept apart here.

Experiments:
[1] = target: T1, full-length beta-Catenin (Uniprot ID P35222) (Homo sapiens, UniProt P35222); test: Fluorescence polarization IC50 (beta-catenin / 5FAM-TCF4 10-53 competition); assay type: binding; settings: fluorescence polarization; read-out: beta-Catenin FP IC50
T1 construct: 10 nM full-length beta-Catenin (Uniprot ID P35222)
T1 sequence (P35222 1-781): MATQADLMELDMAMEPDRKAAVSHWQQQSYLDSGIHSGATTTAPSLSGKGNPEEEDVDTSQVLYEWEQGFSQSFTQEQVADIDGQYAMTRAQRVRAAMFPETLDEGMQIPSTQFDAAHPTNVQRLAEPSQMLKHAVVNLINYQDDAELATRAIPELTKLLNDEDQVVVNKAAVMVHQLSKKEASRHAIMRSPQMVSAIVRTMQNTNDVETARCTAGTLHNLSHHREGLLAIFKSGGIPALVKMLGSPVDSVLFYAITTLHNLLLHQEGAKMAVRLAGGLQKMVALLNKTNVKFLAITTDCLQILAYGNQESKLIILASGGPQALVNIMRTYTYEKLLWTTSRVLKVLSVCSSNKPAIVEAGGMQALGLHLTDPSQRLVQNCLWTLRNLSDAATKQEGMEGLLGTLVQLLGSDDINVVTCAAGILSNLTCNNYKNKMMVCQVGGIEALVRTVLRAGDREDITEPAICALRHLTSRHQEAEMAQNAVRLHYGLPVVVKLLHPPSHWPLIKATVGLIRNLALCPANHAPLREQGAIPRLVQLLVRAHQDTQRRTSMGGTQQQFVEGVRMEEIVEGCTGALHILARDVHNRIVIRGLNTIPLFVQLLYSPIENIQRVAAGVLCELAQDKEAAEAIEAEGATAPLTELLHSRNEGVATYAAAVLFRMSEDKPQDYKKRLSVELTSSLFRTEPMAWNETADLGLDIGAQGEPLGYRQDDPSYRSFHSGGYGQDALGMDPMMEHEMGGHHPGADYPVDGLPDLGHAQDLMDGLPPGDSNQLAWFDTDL

[2] = target: T2, beta-catenin/TCF4 engagement (Homo sapiens, UniProt P35222); test: Nano-BRET target engagement assay (B-cat-Halo & TCF4-Luc in HEK293 cells); assay type: cell-based; settings: read-out: NanoBRET Abs IC50
T2 construct: expressed in transfected cells; host or cells: HEK293
T2 sequence (P35222 1-781): T1 sequence (P35222 1-781)

Row | Compound | IC50 [1] | IC50 [2] | IC50 ([2]; absolute IC50)
1 | CC(=O)N1CCC[C@]12CC=CCCCC1(CCCC=CCCCOC(=O)N3CC[C@@](C(=O)N[C@@H](Cc4ccsc4)C(=O)N[C@@H](Cc4csc5ccccc45)C(=O)N[C@H](C)C(N)=O)(C3)NC(=O)[C@H](CC(C)C)NC(=O)[C@H](Cc3ccccc3)NC(=O)[C@H](C)NC(=O)[C@H](C)NC(=O)[C@H](Cc3cccc(C(=O)O)c3)NC(=O)[C@H](CC(=O)O)NC1=O)NC(=O)[C@H](CC(C)(C)C)NC(=O)[C@H](CC(=O)O)NC2=O (stereo partly drawn) [I-2090, Ac-PL3-Asp-Npg-B5-Asp-3COOHF-Ala-Ala-Phe-Leu-PyrS2-3Thi-BztA-dAla-NH2] | 11 nM | 5900 nM | 
2 | CC(=O)N1CCC[C@]12CC=CCCCC1(CCCC=CCCCOC(=O)N3CC[C@@](C(=O)N[C@@H](Cc4ccccc4)C(=O)N[C@@H](Cc4csc5ccccc45)C(=O)N[C@@H](CCC(N)=O)C(N)=O)(C3)NC(=O)[C@H](CC(C)C)NC(=O)[C@H](Cc3ccccc3)NC(=O)[C@H](C)NC(=O)[C@H](CCCCNC(C)C)NC(=O)[C@H](Cc3cccc(C(=O)O)c3)NC(=O)[C@H](CC(=O)O)NC1=O)NC(=O)[C@H](CC1CCCCC1)NC(=O)[C@H](CC(N)=O)NC2=O (stereo partly drawn) [I-2340, Ac-PL3-Asn-Cha-B5-Asp-3COOHF-iPrLys-Ala-Phe-Leu-PyrS2-Phe-BztA-Gln-NH2] | 5 nM |  | > 20000 nM
3 | CCCC[C@@H]1NC(=O)[C@H](CN(CC(=O)O)CC(F)(F)F)NC(=O)[C@H](CC(=O)O)NC(=O)C2(CCCC=CCCCOC(=O)N3CC[C@@](C(=O)N[C@@H](Cc4ccccc4Cl)C(=O)N[C@@H](Cc4csc5ccccc45)C(=O)N[C@@H](CCC(N)=O)C(N)=O)(C3)NC(=O)[C@H]([C@@H](C)O)NC(=O)[C@H](Cc3ccccc3)NC(=O)[C@H](C)NC1=O)CCCC=CC[C@]1(CCCN1C(C)=O)C(=O)N[C@@H](CC(=O)O)C(=O)N[C@@H](CC(C)(C)C)C(=O)N2 (stereo partly drawn) [I-1692, Ac-PL3-Asp-Npg-B5-Asp-TfeGA-nLeu-Ala-Phe-Thr-PyrS2-2C1F-BztA-Gln-NH2] | 17 nM |  | 10400 nM
4 | CC(=O)N1CCC[C@]12CC=CCCCC1(CCCC=CCCCOC(=O)N3CC[C@@](C(=O)N[C@@H](Cc4ccccc4Cl)C(=O)N[C@@H](Cc4csc5ccccc45)C(=O)N[C@@H](CCC(N)=O)C(N)=O)(C3)NC(=O)[C@H](CC(N)=O)NC(=O)[C@H](Cc3ccccc3)NC(=O)[C@H](C)NC(=O)[C@H](C)NC(=O)[C@H](CN(CCCC(F)(F)F)CC(=O)O)NC(=O)[C@H](CC(=O)O)NC1=O)NC(=O)[C@H](CC(C)(C)C)NC(=O)[C@H](CC(=O)O)NC2=O (stereo partly drawn) [I-1446, Ac-PL3-Asp-Npg-B5-Asp-[Tfb]GA-Ala-Ala-Phe-Asn-PyrS2-2C1F-BztA-Gln-NH2] | 9 nM |  | 35200 nM
5 | CC(=O)N1CCC[C@]12CC=CCCCC1(CCCC=CCCCOC(=O)N3CC[C@@](C(=O)N[C@@H](Cc4ccsc4)C(=O)N[C@@H](Cc4csc5ccccc45)C(=O)N[C@@H](CCC(N)=O)C(N)=O)(C3)NC(=O)[C@H](CC(C)C)NC(=O)[C@H](Cc3ccccc3)NC(=O)[C@H](C)NC(=O)[C@H](CCCN3CCC(F)(F)CC3)NC(=O)[C@H](CC(=O)O)NC(=O)[C@H](CC(=O)O)NC1=O)NC(=O)[C@H](CC(C)(C)C)NC(=O)[C@H](CC(=O)O)NC2=O (stereo partly drawn) [I-1482, Ac-PL3-Asp-Npg-B5-Asp-Asp-F2PipNva-Ala-Phe-Leu-PyrS2-3Thi-BztA-Gln-NH2] | 7 nM |  | 18000 nM
6 | CC(=O)N1CCC[C@]12CC=CCCCC1(CCCC=CCCCOC(=O)N3CC[C@@](C(=O)N[C@@H](Cc4ccsc4)C(=O)N[C@@H](Cc4csc5ccccc45)C(=O)N[C@@H](CCC(=O)N4CCN(CCCN(C)C)CC4)C(N)=O)(C3)NC(=O)[C@H](CC(C)C)NC(=O)[C@H](Cc3ccccc3)NC(=O)[C@H](C)NC(=O)[C@H](C)NC(=O)[C@H](CN(CC(=O)O)CC(F)(F)F)NC(=O)[C@H](CC(=O)O)NC1=O)NC(=O)[C@H](CC(C)(C)C)NC(=O)[C@H](CC(=O)O)NC2=O (stereo partly drawn) [I-1800, Ac-PL3-Asp-Npg-B5-Asp-TfeGA-Ala-Ala-Phe-Leu-PyrS2-3Thi-BztA-[Me2NPrPip]GlnR-NH2] | 13 nM |  | 25200 nM
7 | CC(=O)N1CCC[C@]12CC=CCCCC1(CCCC=CCCCCCC[C@@](C)(C(=O)N[C@@H](Cc3cccs3)C(=O)N[C@@H](Cc3csc4ccccc34)C(=O)N[C@H](CO)[C@@H](C)O)NC(=O)[C@H](CCO)NC(=O)[C@H](Cc3ccccc3)NC(=O)[C@H](C)NC(=O)[C@H](C)NC(=O)[C@H](CC(=O)O)NC(=O)[C@H](CC(=O)O)NC1=O)NC(=O)[C@H](CC(C)(C)C)NC(=O)[C@H](CC(=O)O)NC2=O (stereo partly drawn) [I-1393, Ac-PL3-Asp-Npg-B5-Asp-Asp-Ala-Ala-Phe-Hse-S8-2Thi-BztA-Thro1] | 34 nM |  | 18600 nM
8 | CC(=O)N1CCC[C@]12CC=CCCCC1(CCCC=CCCCOC(=O)N3CC[C@@](C(=O)N[C@@H](Cc4ccsc4)C(=O)N[C@@H](Cc4csc5ccccc45)C(=O)N[C@@H](C)C(N)=O)(C3)NC(=O)[C@H](CC(N)=O)NC(=O)[C@H](Cc3ccccc3)NC(=O)[C@H](C)NC(=O)[C@H](C)NC(=O)[C@H]([C@@H](C)O)NC(=O)[C@H](CC(N)=O)NC1=O)NC(=O)[C@H](CC(C)(C)C)NC(=O)[C@H](CC(=O)O)NC2=O (stereo partly drawn) [I-2142, Ac-PL3-Asp-Npg-B5-Asn-Thr-Ala-Ala-Phe-Asn-PyrS2-3Thi-BztA-Ala-NH2] | 271 nM | > 20000 nM | 
9 | CC(=O)N1CCC[C@]12CC=CCCCC1(CCCC=CCCCOC(=O)N3CC[C@@](C(=O)N[C@@H](Cc4ccccc4Cl)C(=O)N[C@@H](Cc4csc5ccccc45)C(=O)N[C@@H](CC(C)C)C(N)=O)(C3)NC(=O)[C@H](CO)NC(=O)[C@H](Cc3ccccc3)NC(=O)[C@H](C)NC(=O)[C@H](C)NC(=O)[C@H](CC(=O)O)NC(=O)[C@H](CC(=O)O)NC1=O)NC(=O)[C@H](CC1CCCCC1)NC(=O)[C@H](CC(=O)O)NC2=O (stereo partly drawn) [I-1138, Ac-PL3-Asp-Cha-B5-Asp-Asp-Ala-Ala-Phe-Ser-PyrS2-2C1F-BztA-Leu-NH2] | 18 nM |  | 19800 nM
10 | CC(=O)N1CCC[C@]12CC=CCCCC1(CCCC=CCCCOC(=O)N3CC[C@@](C(=O)N[C@@H](Cc4ccsc4)C(=O)N[C@@H](Cc4csc5ccccc45)C(=O)N[C@@H](CCC(N)=O)C(N)=O)(C3)NC(=O)[C@H](CC(C)C)NC(=O)[C@H](Cc3ccccc3)NC(=O)[C@H](C)NC(=O)[C@H](C)NC(=O)[C@H](CCC(=O)OCCSSc3ccccn3)NC(=O)[C@H](CC(=O)O)NC1=O)NC(=O)[C@H](CC(C)(C)C)NC(=O)[C@H](CC(=O)O)NC2=O (stereo partly drawn) [I-1951, Ac-PL3-Asp-Npg-B5-Asp-[EtSSpy]GluE-Ala-Ala-Phe-Leu-PyrS2-3Thi-BztA-Gln-NH2] | 264 nM | > 20000 nM | 
11 | CC(=O)N1CCC[C@]12CC=CCCCC1(CCCC=CCCCOC(=O)N3CC[C@@](C(=O)N[C@@H](Cc4ccsc4)C(=O)N[C@@H](Cc4csc5ccccc45)C(=O)N[C@@H](CCC(N)=O)C(N)=O)(C3)NC(=O)[C@H](CC(C)C)NC(=O)[C@H](Cc3ccccc3)NC(=O)[C@H](C)NC(=O)[C@H](C)NC(=O)[C@H](CN(CC(=O)O)C(=O)CCN(C)C)NC(=O)[C@H](CC(=O)O)NC1=O)NC(=O)[C@H](CC(C)(C)C)NC(=O)[C@H](CC(=O)O)NC2=O (stereo partly drawn) [I-2234, Ac-PL3-Asp-Npg-B5-Asp-[Me2NPr]GA-Ala-Ala-Phe-Leu-PyrS2-3Thi-BztA-Gln-NH2] | 22 nM |  | > 20000 nM
